Experimental data from the supplement of paper PMC10627819.

Tests used:
Experiment in all cases: Bliss interaction score (quartile over a dose matrix) (fitness difference); higher = more antagonism (negative = synergy)
B. subtilis 168 = tested on: B. subtilis 168
Procedure, shortened: (§1)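 Values were capped at 1 after dividing OD595 at stationary-phase entry by the plate's robust no-drug mean. This ratio is fitness, and single-drug fitness was inferred from the combination data. The Bliss score is observed minus product-expected fitness, given as quartiles over technical, biological and donor/recipient replicates.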

S. aureus DSM 20231 = tested on: S. aureus DSM 20231
Procedure, shortened: as §1

S. aureus Newman = tested on: S. aureus Newman
Procedure, shortened: as §1

S. pneumoniae D39V = tested on: S. pneumoniae D39V
Procedure, shortened: as §1
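Also: first quartile when negative (synergy) and third quartile when positive (antagonism).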

| SMILES | Bliss interaction score (B. subtilis 168) | Bliss interaction score (S. aureus DSM 20231) | Bliss interaction score (S. aureus Newman) | Bliss interaction score (S. pneumoniae D39V) |
| --- | --- | --- | --- | --- |
| CC1=C(C(=O)O)N2C(=O)[C@@H](NC(=O)[C@H](N)c3ccccc3)[C@H]2SC1 [Cephalexin] + CC[C@H]1OC(=O)[C@H](C)[C@@H](O[C@H]2C[C@@](C)(OC)[C@@H](O)[C@H](C)O2)[C@H](C)[C@@H](O[C@@H]2O[C@H](C)C[C@H](N(C)C)[C@H]2O)[C@](C)(O)C[C@@H](C)C(=O)[C@H](C)[C@@H](O)[C@]1(C)O [Erythromycin] | -0.0405 | -0.0356 | 0.0826 | 0.0656 |
| CC1=C(C(=O)O)N2C(=O)[C@@H](NC(=O)[C@H](N)c3ccccc3)[C@H]2SC1 [Cephalexin] + O=C(O)c1cn(C2CC2)c2cc(N3CCNCC3)c(F)cc2c1=O [Ciprofloxacin] | -0.084 | 0.0694 | 0.067 | -0.138 |
| O=C(O)[C@H]1/C(=C/CO)O[C@@H]2CC(=O)N21 [Clavulanic] + CN(N=O)C(=O)N[C@@H](C=O)[C@@H](O)[C@H](O)[C@H](O)CO [Streptozotocin] | -0.0541 | -0.0853 | 0.197 | 0.059 |
| Cc1onc(-c2ccccc2)c1C(=O)N[C@@H]1C(=O)N2[C@@H]1SC(C)(C)[C@@H]2C(=O)O [Oxacillin] + C/C(=C\C(=O)OCCCCCCCCC(=O)O)C[C@@H]1OC[C@H](C[C@@H]2O[C@H]2[C@@H](C)[C@H](C)O)[C@@H](O)[C@H]1O [Pseudomonic acid] | 0.0424 | 0.0247 | 0.0232 | 0.158 |
| O=C(O)[C@H]1/C(=C/CO)O[C@@H]2CC(=O)N21 [Clavulanic] + CC1=C\[C@@H](O)CC(=O)Cc2nc(co2)C(=O)N2CCC=C2C(=O)O[C@H](C(C)C)[C@H](C)/C=C/C(=O)NC\C=C\1 [Virginiamycin M1] | 0.0376 | 0.0872 | -0.0599 | 0.0495 |
| Clc1ccc(COC(Cn2ccnc2)c2ccc(Cl)cc2Cl)c(Cl)c1 (configuration not stated) [Miconazole] + CO[C@@]12[C@H](COC(N)=O)C3=C(C(=O)C(C)=C(N)C3=O)N1C[C@@H]1N[C@@H]12 [MitomycinC] | -0.066 | 0.0383 | -0.188 | 0.0662 |
| O=C(O)[C@H]1/C(=C/CO)O[C@@H]2CC(=O)N21 [Clavulanic] + CN[C@@H]1[C@H](O)[C@H](NC)[C@H]2O[C@@]3(O)C(=O)C[C@@H](C)O[C@H]3O[C@@H]2[C@H]1O [Spectinomycin] | 0.0479 | 0.137 | 0.104 | -0.0465 |
| CC[C@H]1OC(=O)[C@H](C)[C@@H](O[C@H]2C[C@@](C)(OC)[C@@H](O)[C@H](C)O2)[C@H](C)[C@@H](O[C@@H]2O[C@H](C)C[C@H](N(C)C)[C@H]2O)[C@](C)(O)C[C@@H](C)CN(C)[C@H](C)[C@@H](O)[C@]1(C)O [Azithromycin] + Oc1cc(Cl)ccc1Oc1ccc(Cl)cc1Cl [Triclosan] | -0.0359 | -0.133 | -0.0316 | -0.0322 |
| CN(N=O)C(=O)N[C@@H](C=O)[C@@H](O)[C@H](O)[C@H](O)CO [Streptozotocin] + Cc1cc(NS(=O)(=O)c2ccc(N)cc2)no1 [Sulfamethoxazol] | -0.0496 | -0.0487 | 0.0639 | -0.0217 |
| Cc1onc(-c2ccccc2)c1C(=O)N[C@@H]1C(=O)N2[C@@H]1SC(C)(C)[C@@H]2C(=O)O [Oxacillin] + CC[C@H]1OC(=O)[C@H](C)C(=O)[C@H](C)[C@@H](O[C@@H]2O[C@H](C)C[C@H](N(C)C)[C@H]2O)[C@](C)(OC)C[C@@H](C)C(=O)[C@H](C)[C@H]2N(CCCCn3cnc(-c4cccnc4)c3)C(=O)O[C@]12C [Telithromycin] | -0.0301 | 0.0397 | 0.0304 | 0.112 |
| O=C(O)[C@H]1/C(=C/CO)O[C@@H]2CC(=O)N21 [Clavulanic] + O=C(O[C@@H]1Cc2c(O)cc(O)cc2O[C@@H]1c1cc(O)c(O)c(O)c1)c1cc(O)c(O)c(O)c1 [EGCG] | -0.0667 | 0.0689 | 0.168 | 0.0628 |
| O=C(O)[C@H]1/C(=C/CO)O[C@@H]2CC(=O)N21 [Clavulanic] + CN(C)C(=O)C(CCN1CCC(O)(c2ccc(Cl)cc2)CC1)(c1ccccc1)c1ccccc1 [Loperamide] | 0.389 | -0.361 | 0.209 | 0.0637 |
| Oc1cc(Cl)ccc1Oc1ccc(Cl)cc1Cl [Triclosan] + CC1=C\[C@@H](O)CC(=O)Cc2nc(co2)C(=O)N2CCC=C2C(=O)O[C@H](C(C)C)[C@H](C)/C=C/C(=O)NC\C=C\1 [Virginiamycin M1] | 0.0973 | 0.108 | 0.034 | 0.0386 |
| O=C(O)[C@H]1/C(=C/CO)O[C@@H]2CC(=O)N21 [Clavulanic] + COc1ccc(C[C@H](N)C(=O)N[C@H]2[C@@H](O)[C@H](n3cnc4c(N(C)C)ncnc43)O[C@@H]2CO)cc1 [Puromycin] | 0.0481 | 0.0964 | -0.0706 | 0.0764 |
| Clc1ccc(COC(Cn2ccnc2)c2ccc(Cl)cc2Cl)c(Cl)c1 (configuration not stated) [Miconazole] + CC[C@H]1OC(=O)[C@H](C)C(=O)[C@H](C)[C@@H](O[C@@H]2O[C@H](C)C[C@H](N(C)C)[C@H]2O)[C@](C)(OC)C[C@@H](C)C(=O)[C@H](C)[C@H]2N(CCCCn3cnc(-c4cccnc4)c3)C(=O)O[C@]12C [Telithromycin] | 0.0586 | 0.04 | 0.0508 | 0.104 |
| CC[C@H]1OC(=O)[C@H](C)[C@@H](O[C@H]2C[C@@](C)(OC)[C@@H](O)[C@H](C)O2)[C@H](C)[C@@H](O[C@@H]2O[C@H](C)C[C@H](N(C)C)[C@H]2O)[C@](C)(O)C[C@@H](C)CN(C)[C@H](C)[C@@H](O)[C@]1(C)O [Azithromycin] + CC1(C)S[C@@H]2[C@H](NC(=O)Cc3ccccc3)C(=O)N2[C@H]1C(=O)O [PenicillinG] | 0.0629 | -0.0514 | -0.087 | 0.0489 |
| CC[C@H]1OC(=O)[C@H](C)[C@@H](O[C@H]2C[C@@](C)(OC)[C@@H](O)[C@H](C)O2)[C@H](C)[C@@H](O[C@@H]2O[C@H](C)C[C@H](N(C)C)[C@H]2O)[C@](C)(O)C[C@@H](C)CN(C)[C@H](C)[C@@H](O)[C@]1(C)O [Azithromycin] + O=C(O)[C@H]1/C(=C/CO)O[C@@H]2CC(=O)N21 [Clavulanic] | 0.115 | -0.136 | 0.239 | -0.0573 |
| Clc1ccc(COC(Cn2ccnc2)c2ccc(Cl)cc2Cl)c(Cl)c1 (configuration not stated) [Miconazole] + CC1(C)S[C@@H]2[C@H](NC(=O)Cc3ccccc3)C(=O)N2[C@H]1C(=O)O [PenicillinG] | 0.0707 | 0.0525 | -0.0331 | 0.106 |
